From patent US20070128217A1 (priority 2003, published 2007)

Key:
[1] = system: antibodies in sera from SARS patients (sera 1a, 1b, 2, 6, 37, 62, London, SARS-yellow, SARS-green); format: binding, human; set-up: Binding of serum 6 to linear peptides of protein X1 of SARS-CoV Urbani / Binding of serum 37 to linear peptides of protein X1 of SARS-CoV Urbani / Binding of serum 6 to looped/cyclic peptide (PEPSCAN-ELISA) / Binding of serum 37 to looped/cyclic peptide (PEPSCAN-ELISA) / Binding of serum 37 to looped/cyclic peptides of protein X1 of SARS-CoV Urbani / Binding of serum 6 to linear peptides of protein X2 / Binding of serum 37 to linear peptides of protein X2 / Binding of serum 37 to looped/cyclic peptides of protein X2 of SARS-CoV Urbani / Binding of serum 6 to linear peptides of protein M of SARS-CoV Urbani / Binding of serum 37 to linear peptides of protein M of SARS-CoV Urbani / Binding of serum 6 to looped/cyclic peptides of protein M of SARS-CoV Urbani / Binding of serum 37 to looped/cyclic peptides of protein M of SARS-CoV Urbani / Binding of serum 6 to linear peptides of protein X3 of SARS-CoV Urbani / Binding of serum 37 to linear peptides of protein X3 of SARS-CoV Urbani / Binding of serum 37 to looped/cyclic peptides of protein X3 of SARS-CoV Urbani / Binding of serum 6 to linear peptides of protein X4 of SARS-CoV Urbani / Binding of serum 37 to linear peptides of protein X4 of SARS-CoV Urbani / Binding of serum 37 to looped/cyclic peptides of protein X4 of SARS-CoV Urbani / Binding of serum 6 to linear peptides of protein X5 of SARS-CoV Urbani / Binding of serum 37 to linear peptides of protein X5 of SARS-CoV Urbani / Binding of serum 37 to looped/cyclic peptides of protein X5 of SARS-CoV Urbani / Binding of serum 6 to linear peptides of protein N of SARS-CoV Urbani / Binding of serum 37 to linear peptides of protein N of SARS-CoV Urbani / Binding of serum 6 to linear peptide (PEPSCAN-ELISA) / Binding of serum 1a to looped/cyclic peptides of protein N of SARS-CoV Urbani / Binding of serum 1b to looped/cyclic peptides of protein N of SARS-CoV Urbani / Binding of serum 2 to looped/cyclic peptides of protein N of SARS-CoV Urbani / Binding of serum 6 to looped/cyclic peptides of protein N of SARS-CoV Urbani / Binding of serum 37 to looped/cyclic peptides of protein N of SARS-CoV Urbani / Binding of serum 62 to looped/cyclic peptides of protein N of SARS-CoV Urbani / Binding of serum London to looped/cyclic peptides of protein N of SARS-CoV Urbani / Binding of serum SARS-green to looped/cyclic peptides of protein N of SARS-CoV Urbani: unit not given here
[2] = system: control sera (pooled serum of ten healthy LUMC hospital workers; commercial negative donor pooled serum from the Dutch bloodbank); format: binding, human; set-up: Binding of Control serum LUMC to linear peptides / Binding of Control serum Blood-bank to linear peptides / Binding of Control serum LUMC to looped peptides / Binding of Control Serum Blood-Bank to Looped peptides / Binding of Control serum LUMC to linear peptides of the protein M of SARS-CoV Urbani / Binding of Control serum Blood-bank to linear peptides of the protein M of SARS-CoV Urbani / Binding of Control serum LUMC to looped peptides of the protein M of SARS-CoV Urbani / Binding of Control Serum Blood-Bank to Looped peptides of the protein M of SARS-CoV Urbani: unit not given here
[3] = system: rabbit serum obtained by immunizing a rabbit with the SARS-CoV strain Frankfurt 1; format: binding; set-up: Binding of a rabbit serum to linear peptides / Binding of a rabbit serum to looped peptides / Rabbit serum linear peptides / Rabbit serum looped peptides / Binding of a rabbit serum to linear peptides of protein N of SARS-CoV Urbani (Rabbit serum linear peptides) / Binding of a rabbit serum to looped/cyclic peptides of protein N of SARS-CoV Urbani (Rabbit serum looped peptides): unit not given here
[4] = system: recombinant human anti-SARS-CoV antibody 03-018; format: binding; set-up: Binding of antibody 03-018 to linear peptides of the N protein of SARS-CoV Urbani / Binding of antibody 03-018 to looped/cyclic peptides of the N protein of SARS-CoV Urbani: unit not given here

| Sequence | Binding of serum 1a to looped/cyclic peptides of protein N of SARS-CoV Urbani [1] | Binding of serum 1b to looped/cyclic peptides of protein N of SARS-CoV Urbani [1] | Binding of serum 2 to looped/cyclic peptides of protein N of SARS-CoV Urbani [1] | Binding of serum 6 to looped/cyclic peptides of protein N of SARS-CoV Urbani [1] | Binding of serum 37 to looped/cyclic peptides of protein N of SARS-CoV Urbani [1] | Binding of serum 62 to looped/cyclic peptides of protein N of SARS-CoV Urbani [1] | Binding of serum London to looped/cyclic peptides of protein N of SARS-CoV Urbani [1] | Binding of serum SARS-green to looped/cyclic peptides of protein N of SARS-CoV Urbani [1] | Binding of serum SARS-yellow to looped/cyclic peptides of protein N of SARS-CoV Urbani [1] | Binding of Control Serum Blood-Bank to Looped peptides [2] | Binding of Control serum Blood-bank to linear peptides [2] | Binding of Control serum LUMC to linear peptides [2] | Binding of Control serum LUMC to looped peptides [2] | Binding of a rabbit serum to linear peptides of protein N of SARS-CoV Urbani (Rabbit serum linear peptides) [3] | Binding of a rabbit serum to looped/cyclic peptides of protein N of SARS-CoV Urbani (Rabbit serum looped peptides) [3] | Binding of antibody 03-018 to linear peptides of the N protein of SARS-CoV Urbani [4] | Binding of antibody 03-018 to looped/cyclic peptides of the N protein of SARS-CoV Urbani [4] | Binding of serum 1a to linear peptides of protein N of SARS-CoV Urbani [1] | Binding of serum 1b to linear peptides of protein N of SARS-CoV Urbani [1] | Binding of serum 2 to linear peptides of protein N of SARS-CoV Urbani [1] | other results |
| --- | --- | --- | --- | --- | --- | --- | --- | --- | --- | --- | --- | --- | --- | --- | --- | --- | --- | --- | --- | --- | --- |
| RSSSRSRGNSRNSTP | 0.2 | 0.2 | 0.2 | 0.1 | 0.5 | 0.3 | 0.3 | 0.2 | 0.3 | 0.4 | 0.9 | 0.8 | 0.4 | 0.1 | 0.2 | 0.1 | 0.2 | – | – | – | Binding of serum 1a to linear peptide (PEPSCAN-ELISA) [1]: 0.3; Binding of serum 1b to linear peptide (PEPSCAN-ELISA) [1]: 0.1; Binding of serum 2 to linear peptide (PEPSCAN-ELISA) [1]: 0.2; Binding of serum 6 to linear peptide (PEPSCAN-ELISA) [1]: 0.2; Binding of serum 37 to linear peptide (PEPSCAN-ELISA) [1]: 0.5; Binding of serum 62 to linear peptide (PEPSCAN-ELISA) [1]: 0.6; Binding of serum London to linear peptide (PEPSCAN-ELISA) [1]: 0.5; Binding of serum SARS-green to linear peptide (PEPSCAN-ELISA) [1]: 0.2; Binding of serum SARS-yellow to linear peptide (PEPSCAN-ELISA) [1]: 0.5 |
| RVRGGDGKMKELSPR | 0.3 | 0.2 | 0.4 | 0.4 | 0.6 | 0.5 | 0.4 | 0.1 | 0.6 | 0.7 | 0.8 | 0.9 | 0.7 | 0.2 | 0.6 | 0.1 | 0.2 | 0.3 | 0.2 | 0.3 | Binding of serum 6 to linear peptides of protein N of SARS-CoV Urbani [1]: 0.2; Binding of serum 37 to linear peptides of protein N of SARS-CoV Urbani [1]: 0.7; Binding of serum 62 to linear peptides of protein N of SARS-CoV Urbani [1]: 0.8; Binding of serum London to linear peptides of protein N of SARS-CoV Urbani [1]: 0.5; Binding of serum SARS-green to linear peptides of protein N of SARS-CoV Urbani [1]: 0.6; Binding of serum SARS-yellow to linear peptides of protein N of SARS-CoV Urbani [1]: 0.7 |
| RWYFYYLGTGPEASL | 0.4 | 0.4 | 0.5 | 0.3 | 1.1 | 0.9 | 0.5 | 0.8 | 0.7 | 0.7 | 0.6 | 0.7 | 0.8 | 0.2 | 0.6 | 0.1 | 0.2 | 0.3 | 0.2 | 0.2 | Binding of serum 6 to linear peptides of protein N of SARS-CoV Urbani [1]: 0.2; Binding of serum 37 to linear peptides of protein N of SARS-CoV Urbani [1]: 0.8; Binding of serum 62 to linear peptides of protein N of SARS-CoV Urbani [1]: 0.8; Binding of serum London to linear peptides of protein N of SARS-CoV Urbani [1]: 0.4; Binding of serum SARS-green to linear peptides of protein N of SARS-CoV Urbani [1]: 0.3; Binding of serum SARS-yellow to linear peptides of protein N of SARS-CoV Urbani [1]: 0.6 |
